Reference: PMC6149664, “Synthesis and In Vitro Antimycobacterial Activity of Novel N-Arylpiperazines Containing an Ethane-1,2-diyl Connecting Chain” (Molecules : A Journal of Synthetic Chemistry and Natural …, 2017)
Like-named read-outs stand apart in the source and are kept apart here.

Tests used:
[1] = system: M. avium subsp. paratuberculosis CIT03; assay: microbe, parasite or virus in culture; type: cell-based; settings: Mycobacterium avium, 168 h; 7 days incubation, alamarBlue; MIC = IC90; read-out: MIC, MAP CIT03
[2] = system: M. kansasii CNCTC My 235/80 (identical with ATCC 12478); assay: In vitro antimycobacterial MIC, dilution-micromethod in Šula semisynthetic medium; type: cell-based, Mycobacterium kansasii; settings: Mycobacterium kansasii, read-out: MIC, MK My 235/80
[3] = system: M. tuberculosis CNCTC My 331/88 (identical with H37Rv and ATCC 2794); assay: as above; type: cell-based; settings: Mycobacterium tuberculosis
M. kansasii CIT11/06 = assay: In vitro antimycobacterial MIC (IC90), alamarBlue 96-well assay in Middlebrook broth; type: cell-based, Mycobacterium kansasii; settings: Mycobacterium kansasii, CIT11/06, 168 h, 7 days incubation, read-out: MIC, MK CIT11/06
[4] = system: M. avium hominissuis CIT10/08; assay: as above; type: cell-based, Mycobacterium avium hominissuis; settings: Mycobacterium avium, 168 h, 7 days incubation, read-out: MIC, MAH CIT10/08
[5] = Isocratic RP-HPLC lipophilicity (k, log k, extrapolated log kw, slope S), MeOH/water mobile phases; type: physicochemical; settings: for log kw (RP-HPLC): extrapolated to 100% water from log k vs ϕM (MeOH); for S, slope (RP-HPLC): slope of regression log k vs ϕM, alternative measure of lipophilicity
From the text: Octadecyl-functionalized silica gel was used as a stationary phase in the RP-HPLC evaluation of 8a–h. A gradient of two solvents at different volume ratios modulated retention properties of a stationary phase. Liquid binary mixtures of methanol (MeOH) with water were employed as mobile phases in a present isocratic RP-HPLC method. The MeOH organic modifier was preferred because of making a reversed-phase chromatographic system closer to the octan-1-ol/water partitioning one in terms of sensitivity to H-bond donor properties of investigated compounds [39, 40]. The modifier was applied in different volume concentrations that varied from 60% to 85% (v/v).
The chromatographic HPLC-Diode Array Detection apparatus for the determination of capacity (retention) factor k (log k) values was the LC Agilent Infinity System (Agilent Technologies, Santa Clara, CA, USA) equipped with a Infinity 1260 gradient pump with a degasser, a 1260 HiPals automatic injector, a column thermostat 1290, a photo-diode array detector Infinity 1290 (all the equipments were obtained by Agilent Technologies) and personal computer with the Agilent ChemStation software (Agilent Technologies) for the registration of values and calibration procedures. The chromatographic column Eclipse plus RP C18, 150 × 4.6 mm i.d., a 5 μm particle size (Agilent Technologies), was used and thermostated at 35 °C.
The analyses were performed at pressure ranged from 7 MPa to 15 MPa. The detection wavelength was set to 260 nm, injection sample volume was 5 μL with a flow rate of 1.0 mL/min in all RP-HPLC analyses.
LC-MS Methanol (J. T. Baker Chemicals Co., Phillipsburg, NJ, USA) and HPLC-quality water (Sigma-Aldrich, Darmstadt, Germany) were used for a preparation of mobile phases. Water was firstly deionized and purified by the Millipore Simplicity 185 Ultrapure water purification system (Millipore, Billerica, MA, USA).
Methanol (MeOH)/water mobile phases with a various volume ratio of the organic modifier and water (60:40, 70:30, 80:20 and 85:15, respectively; v/v) were chosen. A concentration of all analyzed compounds 8a–h was c = 0.25 mg/mL. An queous solution of potassium nitrate (c = 0.1 M) was used for the determination of dead time t0 = 1.295 min. The capacity (retention) factor k values (Table 1) were calculated by Equation (6) as follows:k = (tr – t0)/t0(6) where the tr and t0 parameters were the retention times of a solute (tr) and unretained compound (potassium nitrate; t0), respectively. The observed retention (tr) and dead (t0) times were means of three independent determinations.
The log kw values, i.e., the logarithms of extrapolated capacity (retention) factors for 100% water in the isocratic RP-HPLC, were determined from intercepts of linear plots between the log k and ϕM (a volume fraction of an organic modifier in the isocratic elution RP-HPLC) according to Equation (7): log k = log kw – S × ϕM(7) where the S parameter represented the slope of a regression curve, which was related to the solvent strength of a pure organic solvent.

[6] = system: M. kansasii 6 509/96 clinical isolate; assay: In vitro antimycobacterial MIC, dilution-micromethod in Šula semisynthetic medium; type: cell-based; settings: Mycobacterium kansasii, read-out: MIC, MK 6 509/96
[7] = system: M. avium intracellulare ATCC 13950; assay: In vitro antimycobacterial MIC (IC90), alamarBlue 96-well assay in Middlebrook broth; type: cell-based, Mycobacterium avium intracellulare; settings: Mycobacterium avium, ATCC13950, 168 h, 7 days incubation, read-out: MIC, MAI ATCC 13950
[8] = UV/Vis spectra of methanolic solutions (log ε); type: physicochemical; settings: methanolic solution c = 3.0 × 10^−5 M; for log ε2(Ch-T): charge-transfer maximum λ2(Ch-T) = 238–240 nm; for log ε1: λ1 = 208–210 nm; for log ε3: λ3 = 274–276 nm
From the text: Electronic properties of the inspected compounds 8a–h (Table 3) were characterized by logarithms of molar absorption coefficients (log ε) of their methanolic solutions (c = 3.0 × 10^−5 M) investigated in the UV/Vis region of the spectrum.
The UV/Vis spectra of methanolic solutions of the analyzed compounds 8a–h (c = 3.0 × 10^−5 M) were estimated on the 8452A Diode Array spectrophotometer HP-8452A (Hewlett Packard, Palo Alto, CA, USA). Methanol for UV-spectroscopy (Merck) was used for the preparation of these solutions.
Results of the UV/Vis analyses were collected and stored digitally using the ChemStation controller software (Agilent Technologies, Waldbronn, Germany). The HP-8452A apparatus measured a complete range of a spectrum from 190 nm to 820 nm.
The log ε values characterizing methanolic solutions of the analyzed compounds 8a–h (c = 3.0 × 10^−5 M) were estimated at λ1 = 208–210 nm, λ2(Ch-T) = 238–240 nm and λ3 = 274–276 nm (Table 3), respectively, in a near ultraviolet (quarz) region of the electromagnetic spectrum between 200 and 400 nm. The log ε values for the observed absorption maxima were calculated according to the Lambert-Beer´s law discussed in [47], for example, and expressed by Equation (8):A = ε × c × l(8) where the A parameter represented the absorbance of a solution, the descriptor ε was a molar absorption coefficient (in the L/mol/cm units) and l was the path length (in the cm units).

[9] = ATCC12478, 168 h, 7 d cultivation
[10] = ATCC12478, 336 h, 14 d cultivation
[11] = ATCC12478, 504 h, 21 d cultivation
[12] = 336 h, 14 d cultivation, read-out: MIC, MT My 331/88
[13] = 504 h, 21 d cultivation, read-out: MIC, MT My 331/88
[14] = mobile phase MeOH/water 60:40 (v/v)
[15] = mobile phase MeOH/water 70:30 (v/v)
[16] = mobile phase MeOH/water 80:20 (v/v)
[17] = mobile phase MeOH/water 85:15 (v/v)

SMILES | MIC [1] [µM] | MIC [2, 10] [µM] | MIC [2, 11] [µM] | MIC [3, 12] [µM] | MIC [3, 13] [µM] | MIC (M. kansasii CIT11/06) [µM] | MIC [4] [µM] | capacity factor k (RP-HPLC) ([5]; MeOH/water 60:40 (v/v)) | capacity factor k (RP-HPLC) ([5]; MeOH/water 70:30 (v/v)) | capacity factor k (RP-HPLC) ([5]; MeOH/water 80:20 (v/v)) | capacity factor k (RP-HPLC) ([5]; MeOH/water 85:15 (v/v)) | log kw (RP-HPLC) [5] | log k (RP-HPLC) [5, 14] | log k (RP-HPLC) [5, 15] | log k (RP-HPLC) [5, 16] | log k (RP-HPLC) [5, 17] | S, slope (RP-HPLC) [5] | MIC ([6]; 168 h, 7 d cultivation) [µM] | MIC ([6]; 336 h, 14 d cultivation) [µM] | MIC ([6]; 504 h, 21 d cultivation) [µM] | also measured
CCOC(=O)Nc1cccc(C(O)CN2CCN(c3ccccc3F)CC2)c1.Cl (centres unmarked) [8b, 1-(2-{3-[(Ethoxycarbonyl)amino]phenyl}-2-hydroxyethyl)-4-(2-fluorophenyl)piperazin-1-ium chloride] | > 590 | 250 | 250 | 125 | 125 | 295 | > 590 | 4.951 | 2.778 | 1.245 | 0.879 | 2.546 | 0.695 | 0.444 | 0.095 | −0.056 | 3.0529 | 62.5 | 250 | 250 | MIC [2, 9]: 62.5 µM; MIC [7]: > 590 µM; log ε2(Ch-T) [8]: 4.33; log ε1 [8]: 4.31; log ε3 [8]: 3.40
CCCOC(=O)Nc1cccc(C(O)CN2CCN(c3ccccc3F)CC2)c1.Cl (centres unmarked) [8c, 1-(2-Hydroxy-2-{3-[(propoxycarbonyl)amino]phenyl}ethyl)-4-(2-fluorophenyl)piperazin-1-ium chloride] | > 571 | 125 | 125 | 62.5 | 62.5 | > 571 | > 571 | 5.898 | 3.561 | 1.466 | 1.023 | 2.679 | 0.771 | 0.552 | 0.166 | 0.010 | 3.1244 | 32 | 125 | 125 | MIC ([2]; ATCC12478, 168 h): 62.5 µM; MIC [7]: > 571 µM; log ε2(Ch-T) [8]: 4.37; log ε1 [8]: 4.30; log ε3 [8]: 3.42
COC(=O)Nc1cccc(C(O)CN2CCN(c3ccccc3F)CC2)c1.Cl (centres unmarked) [8a, 1-(2-Hydroxy-2-{3-[(methoxycarbonyl)amino]phenyl}ethyl)-4-(2-fluorophenyl)piperazin-1-ium chloride] | > 610 | 500 | 1000 | 250 | 250 | > 610 | > 610 | 4.091 | 1.770 | 0.925 | 0.699 | 2.430 | 0.612 | 0.248 | −0.034 | −0.156 | 3.0678 | 125 | 500 | 500 | MIC [2, 9]: 125 µM; MIC ([3]; 336 h, 14-d/21-d cultivation, read-out: MIC against M. tuberculosis CNCTC My 331/88): 250 µM; MIC [7]: > 610 µM; log ε2(Ch-T) [8]: 4.30; log ε1 [8]: 4.30; log ε3 [8]: 3.45
CCCOC(=O)Nc1ccc(C(O)CN2CCN(c3ccccc3F)CC2)cc1.Cl (centres unmarked) [8g, 1-(2-Hydroxy-2-{4-[(propoxycarbonyl)amino]phenyl}ethyl)-4-(2-fluorophenyl)piperazin-1-ium chloride] | > 571 | > 250 | > 250 | 16 | 16 | > 571 | > 571 | 5.394 | 3.108 | 1.342 | 0.956 | 2.600 | 0.732 | 0.492 | 0.128 | −0.020 | 3.0739 | 125 | > 250 | > 250 | MIC [2, 9]: 125 µM; MIC [7]: > 71 µM; log ε2(Ch-T) [8]: 4.54; log ε1 [8]: 4.47; log ε3 [8]: 3.52
